Results on 25 compounds are retold here after patent publication US7550469B2, “Heterocyclic amide derivatives and their use as dopamine D3 receptor ligands” (Aventis Pharmaceuticals Inc., priority 2001, dated 2009).

Read-outs that look alike come from different tables or passages of the source.

This assay deals with T1, cloned human dopamine D3 receptors (Homo sapiens, UniProt P35462).
T1 construct: expressed in transfected cells; membrane homogenate
Description: [N-Methyl-3H]Spiroperidol binding to cloned human dopamine D3 receptors (Protocol 1). A digest of the protocol:
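Radioligand displacement with [N-methyl-3H]spiroperidol used a physiological-salt Tris buffer (0.05 M, pH 7.7; NaCl 120 mM, KCl 5 mM, CaCl2 2 mM, MgCl2 1 mM) and membranes of a high-expressing stable CHO clone carrying human D3. Total ligand concentration came from measured added CPM; 0.1% ascorbic acid was optional for oxidizable compounds.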

Where [1] appears, read: the 14th table, read-out: D3 Ki.
Setting [2] is: the 16th table, read-out: D3 Ki.
Where [3] appears, read: the 13th table, unit inferred, read-out: D3Ki.
Setting [4] is: the 21st table, read-out: D3 Ki.
Setting [5] is: the 15th table, read-out: D3 Ki.

T1 sequence (P35462 whole entry): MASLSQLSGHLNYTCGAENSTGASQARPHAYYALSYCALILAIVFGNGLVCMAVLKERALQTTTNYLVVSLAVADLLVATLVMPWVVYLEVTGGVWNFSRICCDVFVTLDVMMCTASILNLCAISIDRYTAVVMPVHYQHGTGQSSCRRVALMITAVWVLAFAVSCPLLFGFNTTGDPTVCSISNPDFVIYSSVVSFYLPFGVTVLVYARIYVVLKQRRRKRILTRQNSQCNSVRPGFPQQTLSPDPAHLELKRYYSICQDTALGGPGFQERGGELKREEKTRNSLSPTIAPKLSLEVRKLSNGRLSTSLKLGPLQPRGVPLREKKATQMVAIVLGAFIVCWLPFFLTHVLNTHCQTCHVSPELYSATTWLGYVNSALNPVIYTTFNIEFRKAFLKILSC

Take `O=C(NCCCCCN1CCN(c2csc3cc(C(F)(F)F)ccc23)CC1)c1cccs1` [compound 826764]: the Ki runs as follows: (read-out: D3K1) 7.8 nM; under setting [1], 7.8 nM.
Consider `COc1ccc(CNCC2CC2CN2CCN(c3csc4cc(C(F)(F)F)ccc34)CC2)cc1` (racemic) [compound 831909], for which the Ki (the 23rd table, read-out: D3 Ki) amounted to 41.5 nM.
Consider `O=C(NC/C=C/CN1CCN(c2csc3cc(C(F)(F)F)ccc23)CC1)c1cccc(Cl)c1` [compound 827718], for which the Ki (read-out: D3K1) was 150 nM.
On to `O=C(NCCCCCN1CCN(c2csc3cc(C(F)(F)F)ccc23)CC1)c1cccc(Cl)c1` [compound 826765], for which the Ki runs as follows: (read-out: D3K1) 23 nM; under setting [1], 23 nM.
As for `COc1cc(Br)cc2cc(C(=O)NCCCCN3CCCN(c4csc5cc(F)ccc45)CC3)oc12` [compound 827125], the Ki is, setting by setting: (Table 2, read-out: D3K1) 28.3 nM; under setting [2], 28.3 nM.
On to `O=C(NCCCCCCN1CCN(c2csc3cc(C(F)(F)F)ccc23)CC1)c1ccc2[nH]ccc2c1` [compound 816316], for which the Ki was found to be 2.7 nM (Table 2, read-out: D3K1); 2.7 nM (read-out: D3K1); 2.7 nM under setting [1].
As to `O=C(NCCCCN1CCN(c2nn(C(=O)c3ccc(F)c(F)c3)c3ccsc23)CC1)c1ccc(F)c(F)c1` [compound 825150], where the note is “the 22nd table, read-out: D3 Ki”, the Ki is 199 nM.
Consider `CCN(CC)c1ccc2cc(C(=O)NCCCCN3CCCN(c4csc5cc(F)ccc45)CC3)oc2c1` [compound 827123], for which the Ki runs as follows: (Table 2, read-out: D3K1) 107 nM; under setting [2], 107 nM.
Consider `CN(C)c1ccccc1C(=O)NCCCCN1CCCN(c2csc3cc(F)ccc23)CC1` [compound 817269], for which the Ki (Table 2, read-out: D3K1) was determined as 4.74 nM and the Ki under setting [2] was 4.74 nM.
`O=C(NCCCCN1CCCN(c2csc3cc(F)ccc23)CC1)c1ccc2c(c1)S(=O)(=O)c1ccccc1C2=O` [S982539]: under setting [3], the Ki came out at 0.8 nM.
With `O=C(NC(CO)CCCN1CCN(c2csc3cc(C(F)(F)F)ccc23)CC1)c1cc2ccccc2s1` (stereo not shown) [compound 815684], the Ki (Table 2, read-out: D3K1) stood at 208 nM; the Ki (read-out: D3K1) stood at 208 nM; the Ki under setting [1] worked out at 208 nM.
On to `C[C@@H]1CN(c2csc3cc(F)ccc23)C[C@H](C)N1CCCCNC(=O)c1cccc2ccccc12` [compound 827050], for which, under setting [4], the Ki is 186 nM.
`O=C(NC/C=C/CN1CCN(c2csc3cc(C(F)(F)F)ccc23)CC1)c1cc2ccccc2[nH]1` [compound 827742]: the Ki (Table 2, read-out: D3K1) was determined as 21.3 nM.
On to `CCCCc1ccc(C(=O)NCCCCCN2CCC(c3noc4ccsc34)CC2)cc1` [compound 816218], for which the Ki under setting [3] was determined as 316 nM.
Take `CSc1ncccc1C(=O)NCCCCN1C2CCC1CC(c1noc3ccccc13)C2` (stereo not shown) [compound 816541]: the Ki under setting [5] worked out at 511 nM.
Take `COc1cc(OC)cc(C(=O)NCCCCCN2CCCN(c3csc4cc(F)ccc34)CC2)c1` [S984487]: the Ki under setting [3] was found to be 31.8 nM.
Regarding `C[C@@H]1CN(c2csc3cc(F)ccc23)C[C@H](C)N1CCCCNC(=O)c1c[nH]c2ccccc12` [compound 826962], the Ki under setting [4] came to 79.8 nM.
`CC1(C)C(CNC(=O)c2ccc(F)cc2)C1CN1CCN(c2csc3cc(C(F)(F)F)ccc23)CC1` (stereo not shown) [compound 826273]: the Ki (read-out: D3K1) came out at 51 nM.
On to `COc1ccccc1C(=O)NCCCCN1CCCN(c2csc3cc(C(F)(F)F)ccc23)CC1` [S980634], for which, under setting [3], the Ki amounted to 14 nM.
Turning to `OC(CCN1CCC(c2noc3ccsc23)CC1)CN1CCN(c2ccccc2)CC1` (stereo not shown) [compound 831943], the Ki (the 26th table, read-out: D3 Ki) turned out to be 264 nM.
Regarding `O=C(NCCCCN1CCCN(c2csc3cc(C(F)(F)F)ccc23)CC1)c1ccc(-c2ccccc2F)cc1` [S908665], the Ki under setting [3] turned out to be 20.3 nM.
Consider `O=C(NCCCCN1CCCN(c2csc3cc(F)ccc23)CC1)c1ccccc1I` [S981851], for which, under setting [3], the Ki was 2.72 nM.
On to `O=C(NCCCCN1CCCN(c2csc3cc(F)ccc23)CC1)c1cc(Cl)cc(Cl)c1` [S981848], for which the Ki under setting [3] turned out to be 8.3 nM.
Consider `O=C(NCCCCN1CCCN(c2csc3cc(C(F)(F)F)ccc23)CC1)c1cnc2ccccc2n1` [S980643], for which, under setting [3], the Ki was found to be 96 nM.
With `O=C(NCCCCN1C2CCC1CC(c1noc3ccccc13)C2)c1cccc(F)c1F` (stereo not shown) [compound 816540], the Ki under setting [5] turned out to be 225 nM.
